System: MV-4-11 cells
Experiment: Gene expression microarray analysis (Affymetrix PrimeView) and GSEA
Type: cell-based, human
Parameters: RFU PODN (11730768_x_at) / Fold change /veh PODN (11730768_x_at) / RFU LINC00158 (11744669_a_at) / Fold change /veh LINC00158 (11744669_a_at) / RFU DUSP10 (11751237_a_at) / Fold change /veh DUSP10 (11751237_a_at) / RFU ID3 (11757404_x_at) / Fold change /veh ID3 (11757404_x_at) / RFU PLEKHG5 (11737974_s_at) / Fold change /veh PLEKHG5 (11737974_s_at) / RFU LRRC4B (11730491_at) / Fold change /veh LRRC4B (11730491_at) / RFU GIMAP4 (11747438_a_at) / Fold change /veh GIMAP4 (11747438_a_at) / RFU KRT8 (11758183_x_at) / Fold change /veh KRT8 (11758183_x_at) / RFU CNN1 (11734310_a_at) / Fold change /veh CNN1 (11734310_a_at) / RFU VPS37D (11726825_at) / Fold change /veh VPS37D (11726825_at) / RFU C10orf10 (11716522_x_at) / Fold change /veh C10orf10 (11716522_x_at) / RFU KIR2DL2 /// KIR2DL4 /// KIR2DL5A /// KIR2DL5B /// KIR2DS1 /// KIR2DS2 /// KIR2DS3 /// KIR2DS4 /// KIR3DL3 /// KIR3DL3 /// KIR3DS1 (11738374_at) / Fold change /veh KIR2DL2 /// KIR2DL4 /// KIR2DL5A /// KIR2DL5B /// KIR2DS1 /// KIR2DS2 /// KIR2DS3 /// KIR2DS4 /// KIR3DL3 /// KIR3DL3 /// KIR3DS1 (11738374_at) / RFU C1QL1 (11718748_at) / Fold change /veh C1QL1 (11718748_at) / RFU TMPRSS4 (11747572_a_at) / Fold change /veh TMPRSS4 (11747572_a_at) / RFU HAMP (11756126_x_at) / Fold change /veh HAMP (11756126_x_at) / RFU RNFT2 (11725882_a_at) / Fold change /veh RNFT2 (11725882_a_at) / RFU NR4A2 (11747474_a_at) / Fold change /veh NR4A2 (11747474_a_at) / RFU ABCC12 (11746883_a_at) / Fold change /veh ABCC12 (11746883_a_at) / RFU TMEM136 (11760407_x_at) / Fold change /veh TMEM136 (11760407_x_at) / RFU CLDN22 /// WWC2 (11732394_at) / Fold change /veh CLDN22 /// WWC2 (11732394_at) / RFU HLA-DPB1 (11760878_x_at) / Fold change /veh HLA-DPB1 (11760878_x_at) / RFU SPINT1 (11716480_a_at) / Fold change /veh SPINT1 (11716480_a_at) / RFU GAP43 (11754022_s_at) / Fold change /veh GAP43 (11754022_s_at) / RFU A4GNT (11735810_at) / Fold change /veh A4GNT (11735810_at) / RFU PRB3 (11715151_x_at) / Fold change /veh PRB3 (11715151_x_at) / RFU TUBB4B (11761932_at) / Fold change /veh TUBB4B (11761932_at) / RFU CAPN14 (11732068_a_at) / Fold change /veh CAPN14 (11732068_a_at) / RFU TMCC2 (11721928_a_at) / Fold change /veh TMCC2 (11721928_a_at) / RFU IRGQ (11745062_a_at) / Fold change /veh IRGQ (11745062_a_at) / RFU FAM174B (11720279_a_at) / Fold change /veh FAM174B (11720279_a_at) / RFU TMPRSS4 (11748680_a_at) / Fold change /veh TMPRSS4 (11748680_a_at) / RFU FAM212B (11763350_a_at) / Fold change /veh FAM212B (11763350_a_at) / RFU PLEKHG5 (11743358_a_at) / Fold change /veh PLEKHG5 (11743358_a_at) / RFU ZSCAN30 (11745921_a_at) / Fold change /veh ZSCAN30 (11745921_a_at) / RFU CMKLR1 (11741424_a_at) / Fold change /veh CMKLR1 (11741424_a_at) / RFU LOC101060620 /// MAPK8IP1 (11723275_at) / Fold change /veh LOC101060620 /// MAPK8IP1 (11723275_at) / RFU SPTSSB (11747773_x_at) / Fold change /veh SPTSSB (11747773_x_at) / RFU PRSS12 (11739890_at) / Fold change /veh PRSS12 (11739890_at) / RFU BIN1 (11741810_x_at) / Fold change /veh BIN1 (11741810_x_at) / RFU WNT11 (11732464_a_at) / Fold change /veh WNT11 (11732464_a_at) / RFU C10orf10 (11716521_a_at) / Fold change /veh C10orf10 (11716521_a_at) / RFU C5orf56 (11738089_at) / Fold change /veh C5orf56 (11738089_at) / RFU CYB561 (11721691_x_at) / Fold change /veh CYB561 (11721691_x_at) / RFU ANKRD19P (11752326_a_at) / Fold change /veh ANKRD19P (11752326_a_at) / RFU OR2T12 /// OR2T33 /// OR2T8 (11738714_s_at) / Fold change /veh OR2T12 /// OR2T33 /// OR2T8 (11738714_s_at) / RFU VCAN (11748164_a_at) / Fold change /veh VCAN (11748164_a_at) / RFU JSRP1 (11732532_at) / Fold change /veh JSRP1 (11732532_at) / RFU KRTAP10-11 (11738290_x_at) / Fold change /veh KRTAP10-11 (11738290_x_at) / RFU MYO3A (11730013_a_at) / Fold change /veh MYO3A (11730013_a_at) / RFU EBF3 (11725865_a_at) / Fold change /veh EBF3 (11725865_a_at) / RFU CAMK2N1 (11719241_x_at) / Fold change /veh CAMK2N1 (11719241_x_at) / RFU C5orf56 (11738088_a_at) / Fold change /veh C5orf56 (11738088_a_at) / RFU OLFML3 (11715873_a_at) / Fold change /veh OLFML3 (11715873_a_at) / RFU LOC100653217 /// NTM (11731650_a_at) / Fold change /veh LOC100653217 /// NTM (11731650_a_at) / RFU MAPK11 (11762145_a_at) / Fold change /veh MAPK11 (11762145_a_at) / RFU FIZ1 (11724087_x_at) / Fold change /veh FIZ1 (11724087_x_at) / RFU OASL (11726364_x_at) / Fold change /veh OASL (11726364_x_at) / RFU SOX15 (11748057_x_at) / Fold change /veh SOX15 (11748057_x_at) / RFU CD79A (11719716_a_at) / Fold change /veh CD79A (11719716_a_at) / RFU HIST1H1D (11736915_at) / Fold change /veh HIST1H1D (11736915_at) / RFU CASKIN2 (11723855_a_at) / Fold change /veh CASKIN2 (11723855_a_at) / RFU LOC730098 (11760151_x_at) / Fold change /veh LOC730098 (11760151_x_at) / RFU OR4N2 (11742367_at) / Fold change /veh OR4N2 (11742367_at) / RFU PRRT2 (11749266_a_at) / Fold change /veh PRRT2 (11749266_a_at) / RFU SNX32 (11753110_a_at) / Fold change /veh SNX32 (11753110_a_at) / RFU CDHR5 (11726645_a_at) / Fold change /veh CDHR5 (11726645_a_at) / RFU RCAN1 (11760418_a_at) / Fold change /veh RCAN1 (11760418_a_at) / RFU FAM167A (11723789_a_at) / Fold change /veh FAM167A (11723789_a_at) / RFU FAM26E (11764081_at) / Fold change /veh FAM26E (11764081_at) / RFU ISYNA1 (11749810_s_at) / Fold change /veh ISYNA1 (11749810_s_at) / RFU ACY1 (11761880_at) / Fold change /veh ACY1 (11761880_at) / RFU 11764098_at / Fold change /veh 11764098_at / RFU SAMD14 (11745864_x_at) / Fold change /veh SAMD14 (11745864_x_at) / RFU NPB (11741838_a_at) / Fold change /veh NPB (11741838_a_at) / RFU TMPRSS6 (11731388_a_at) / Fold change /veh TMPRSS6 (11731388_a_at) / RFU KRTAP10-2 (11738614_at) / Fold change /veh KRTAP10-2 (11738614_at) / RFU ARHGAP8 /// PRR5-ARHGAP8 (11727945_x_at) / Fold change /veh ARHGAP8 /// PRR5-ARHGAP8 (11727945_x_at) / RFU KRTAP5-7 /// NADSYN1 (11734609_at) / Fold change /veh KRTAP5-7 /// NADSYN1 (11734609_at) / RFU RASL12 (11751679_a_at) / Fold change /veh RASL12 (11751679_a_at) / RFU CDKN2B (11736163_a_at) / Fold change /veh CDKN2B (11736163_a_at) / RFU PRF1 (11729649_at) / Fold change /veh PRF1 (11729649_at) / RFU, ZNF638 /// ZNF638-IT1 / Fold change vs veh, ZNF638 /// ZNF638-IT1 / RFU, PANK3 / Fold change vs veh, PANK3 / RFU, SH3YL1 / Fold change vs veh, SH3YL1 / RFU, ZEB2 / Fold change vs veh, ZEB2 / RFU, NRIP1 / Fold change vs veh, NRIP1 / RFU, PTTG1IP / Fold change vs veh, PTTG1IP / RFU, CAPN2 / Fold change vs veh, CAPN2 / RFU, MED14 / Fold change vs veh, MED14 / RFU, SNORA58 / Fold change vs veh, SNORA58 / RFU, C1orf63 / Fold change vs veh, C1orf63 / RFU, LRRFIP1 / Fold change vs veh, LRRFIP1 / RFU, NDUFAF7 / Fold change vs veh, NDUFAF7 / RFU, SLC12A2 / Fold change vs veh, SLC12A2 / RFU, IBTK / Fold change vs veh, IBTK / RFU, ESF1 / Fold change vs veh, ESF1 / Fold change vs veh, TMEM50B / RFU, TAOK1 / Fold change vs veh, TAOK1 / RFU, ACBD3 / Fold change vs veh, ACBD3 / RFU, TMA16 / Fold change vs veh, TMA16 / RFU, RWDD3 / Fold change vs veh, RWDD3 / RFU, BCAT1 / Fold change vs veh, BCAT1 / RFU, EDEM3 / Fold change vs veh, EDEM3 / RFU, TMEM33 / Fold change vs veh, TMEM33 / RFU, WDR75 / Fold change vs veh, WDR75 / RFU, AHCTF1 / Fold change vs veh, AHCTF1 / RFU, TFRC / Fold change vs veh, TFRC / RFU, ZDHHC17 / Fold change vs veh, ZDHHC17 / RFU, NOM1 / Fold change vs veh, NOM1 / RFU, ARL8B / Fold change vs veh, ARL8B / RFU, ZBTB11 / Fold change vs veh, ZBTB11 / RFU, TAMM41 / Fold change vs veh, TAMM41 / RFU, KIAA1704 /// LOC100996395 / Fold change vs veh, KIAA1704 /// LOC100996395 / RFU, ING1 / Fold change vs veh, ING1 / RFU, TRMT61B / Fold change vs veh, TRMT61B / RFU, FUBP3 / Fold change vs veh, FUBP3 / RFU, TP53 / Fold change vs veh, TP53 / RFU, TNKS2 / Fold change vs veh, TNKS2 / RFU, ZFP14 / Fold change vs veh, ZFP14 / RFU, ACTR2 / Fold change vs veh, ACTR2 / RFU, PPP3R1 / Fold change vs veh, PPP3R1 / RFU, PIK3R1 / Fold change vs veh, PIK3R1 / RFU, HNRNPA1 / Fold change vs veh, HNRNPA1 / RFU, RNF170 / Fold change vs veh, RNF170 / RFU, ZNF28 / Fold change vs veh, ZNF28 / RFU, RNGTT / Fold change vs veh, RNGTT / RFU, OGT / Fold change vs veh, OGT / RFU, BRD1 / Fold change vs veh, BRD1 / RFU, MARS / Fold change vs veh, MARS / RFU, ZNF655 / Fold change vs veh, ZNF655 / RFU, FAHD1 / Fold change vs veh, FAHD1 / RFU, BDP1 / Fold change vs veh, BDP1 / RFU, LRRCC1 / Fold change vs veh, LRRCC1 / RFU, ARID1A / Fold change vs veh, ARID1A / RFU, ZNF146 / Fold change vs veh, ZNF146 / RFU, ZNF330 / Fold change vs veh, ZNF330 / RFU, GPN3 / Fold change vs veh, GPN3 / RFU, C9orf123 / Fold change vs veh, C9orf123 / RFU, N4BP2L2 / Fold change vs veh, N4BP2L2 / RFU, ARFIP1 / Fold change vs veh, ARFIP1 / RFU, FAM179B / Fold change vs veh, FAM179B / RFU, BCL10 / Fold change vs veh, BCL10 / RFU, UHRF1BP1L / Fold change vs veh, UHRF1BP1L / RFU, BET1 / Fold change vs veh, BET1 / RFU, CNOT2 / Fold change vs veh, CNOT2 / RFU, ZNF268 / Fold change vs veh, ZNF268 / Fold change vs veh, ZNF507 / RFU, DGCR2 / Fold change vs veh, DGCR2 / RFU, WDSUB1 / Fold change vs veh, WDSUB1 / Fold change vs veh, HSP90B1 /// MIR3652 / RFU, ADSS / Fold change vs veh, ADSS / RFU, GK / Fold change vs veh, GK / RFU, ZNF148 / Fold change vs veh, ZNF148 / RFU, TAF9 / Fold change vs veh, TAF9 / RFU, SLC1A5 / Fold change vs veh, SLC1A5 / RFU, SLMO2 / Fold change vs veh, SLMO2 / RFU, ABCC4 / Fold change vs veh, ABCC4 / RFU, LOC101060439 /// RAP1B / Fold change vs veh, LOC101060439 /// RAP1B / RFU, RFX7 / Fold change vs veh, RFX7 / RFU, GTPBP10 / Fold change vs veh, GTPBP10 / RFU, CNEP1R1 / Fold change vs veh, CNEP1R1 / RFU, BIVM-ERCC5 /// ERCC5 / Fold change vs veh, BIVM-ERCC5 /// ERCC5 / RFU, ILF3 / Fold change vs veh, ILF3 / RFU 11762660_at / Fold change /veh 11762660_at / RFU VCAN (11757783_s_at) / Fold change /veh VCAN (11757783_s_at) / RFU DDX43 (11728927_at) / Fold change /veh DDX43 (11728927_at) / RFU KRT8 (11758188_x_at) / Fold change /veh KRT8 (11758188_x_at) / RFU NKD1 (11759106_at) / Fold change /veh NKD1 (11759106_at) / RFU SRD5A1 (11742802_a_at) / Fold change /veh SRD5A1 (11742802_a_at) / RFU TPSAB1 /// TPSB2 (11721975_s_at) / Fold change /veh TPSAB1 /// TPSB2 (11721975_s_at) / RFU GSTM3 (11746129_a_at) / Fold change /veh GSTM3 (11746129_a_at) / RFU IL23R (11737362_x_at) / Fold change /veh IL23R (11737362_x_at) / RFU TMEM51 (11727254_a_at) / Fold change /veh TMEM51 (11727254_a_at) / RFU PIWIL2 (11732686_x_at) / Fold change /veh PIWIL2 (11732686_x_at) / RFU ORM1 (11744905_x_at) / Fold change /veh ORM1 (11744905_x_at) / RFU CCDC152 (11743942_at) / Fold change /veh CCDC152 (11743942_at) / RFU ECM1 (11717891_a_at) / Fold change /veh ECM1 (11717891_a_at) / RFU IL23R (11748794_a_at) / Fold change /veh IL23R (11748794_a_at) / RFU TNFAIP8L3 (11732012_x_at) / Fold change /veh TNFAIP8L3 (11732012_x_at) / RFU MBOAT4 (11741988_at) / Fold change /veh MBOAT4 (11741988_at) / RFU 11764193_at / Fold change /veh 11764193_at / RFU TMEM53 (11763286_at) / Fold change /veh TMEM53 (11763286_at) / RFU MAGEB2 (11727129_at) / Fold change /veh MAGEB2 (11727129_at) / RFU TMEM200A (11744735_a_at) / Fold change /veh TMEM200A (11744735_a_at) / RFU CCDC152 (11751479_a_at) / Fold change /veh CCDC152 (11751479_a_at) / RFU FAM211A (11726209_a_at) / Fold change /veh FAM211A (11726209_a_at) / RFU RGS16 (11746705_a_at) / Fold change /veh RGS16 (11746705_a_at) / RFU VCAN (11755009_s_at) / Fold change /veh VCAN (11755009_s_at) / RFU RHOB (11743442_s_at) / Fold change /veh RHOB (11743442_s_at) / RFU RGS16 (11720943_a_at) / Fold change /veh RGS16 (11720943_a_at) / RFU RGS16 (11720944_at) / Fold change /veh RGS16 (11720944_at) / RFU, VPS4B / Fold change vs veh, VPS4B / RFU, CREB1 / Fold change vs veh, CREB1 / RFU, DNAJC13 / Fold change vs veh, DNAJC13 / RFU, GNAQ / Fold change vs veh, GNAQ / RFU, CDK5R1 / Fold change vs veh, CDK5R1 / RFU, ZRANB3 / Fold change vs veh, ZRANB3 / RFU, CUL4A / Fold change vs veh, CUL4A / RFU, CCNY / Fold change vs veh, CCNY / RFU, UFL1 / Fold change vs veh, UFL1 / RFU, COG3 / Fold change vs veh, COG3 / RFU, DIAPH2 / Fold change vs veh, DIAPH2 / RFU, SKA2 / Fold change vs veh, SKA2 / RFU, AFF3 / Fold change vs veh, AFF3 / RFU, LMF1 / Fold change vs veh, LMF1 / RFU, IPO11 / Fold change vs veh, IPO11 / RFU, DFFB / Fold change vs veh, DFFB / RFU, FOXP1 / Fold change vs veh, FOXP1 / RFU, CARD8 / Fold change vs veh, CARD8 / RFU, STRN3 / Fold change vs veh, STRN3 / RFU, ADK / Fold change vs veh, ADK / RFU, RASSF2 / Fold change vs veh, RASSF2 / RFU, WIPF1 / Fold change vs veh, WIPF1 / RFU, LARP1B / Fold change vs veh, LARP1B / RFU, RASA1 / Fold change vs veh, RASA1 / RFU, RB1 / Fold change vs veh, RB1 / RFU, PPFIA1 / Fold change vs veh, PPFIA1 / RFU, MAT2A / Fold change vs veh, MAT2A / RFU, CCT5 / Fold change vs veh, CCT5 / RFU, WDR92 / Fold change vs veh, WDR92 / RFU, CUX1 / Fold change vs veh, CUX1 / RFU, TTC7A / Fold change vs veh, TTC7A / RFU, TMEM135 / Fold change vs veh, TMEM135 / RFU, DEPTOR / Fold change vs veh, DEPTOR / RFU, CPM / Fold change vs veh, CPM / RFU, DNAJB6 / Fold change vs veh, DNAJB6 / RFU, CACNA2D3 / Fold change vs veh, CACNA2D3 / RFU, DTX4 / Fold change vs veh, DTX4 / RFU, TFCP2 / Fold change vs veh, TFCP2 / RFU, GMCL1 /// GMCL1P1 / Fold change vs veh, GMCL1 /// GMCL1P1 / RFU, AEBP2 / Fold change vs veh, AEBP2 / RFU, SNHG1 /// SNORD22 /// SNORD25 /// SNORD26 /// SNORD27 /// SNORD28 /// SNORD29 /// SNORD31 / Fold change vs veh, SNHG1 /// SNORD22 /// SNORD25 /// SNORD26 /// SNORD27 /// SNORD28 /// SNORD29 /// SNORD31 / Fold change (Aza/veh), C12orf56 (ProbeSet 11735607_a_at) / Fold change (ACY-1035/veh), C12orf56 (ProbeSet 11735607_a_at) / Fold change (Aza/veh), FGFR1OP (ProbeSet 11751329_s_at) / Fold change (ACY-1035/veh), FGFR1OP (ProbeSet 11751329_s_at) / Fold change (Aza/veh), VPS36 (ProbeSet 11739960_a_at) / Fold change (ACY-1035/veh), VPS36 (ProbeSet 11739960_a_at) / RFU SYPL1 (11715823_x_at) / Fold change /veh SYPL1 (11715823_x_at) / RFU IGFBP7 (11715501_s_at) / Fold change /veh IGFBP7 (11715501_s_at) / RFU REEP3 (11722064_at) / Fold change /veh REEP3 (11722064_at) / RFU IGLL1 (11728026_x_at) / Fold change /veh IGLL1 (11728026_x_at): dose or concentration left out as unconfirmed
Conditions: MV-4-11 cells, 48 hours

Nc1ncn([C@@H]2O[C@H](CO)[C@@H](O)[C@H]2O)c(=O)n1 [azacitidine]
Fold change /veh ZSCAN30 (11745921_a_at): 1.18

— article PMC5218480 (PLoS ONE, 2017)
